In patent US20230234948A1, “CYCLOPROPYL DIHYDROQUINOLINE SULFONAMIDE COMPOUNDS” (AMGEN INC., priority 2020, published 2023):

Tests used:
[1] = target: T1, Human NaV1.7 (Homo sapiens, UniProt Q15858); test: Ionworks Barracuda (IWB) automated patch clamp assay; assay type: cell-based; conditions: human NaV1.7 in HEK cells, population patch-clamp, state- and use-dependent voltage protocol; read-out: hNaV1.7 IWB-U IC50
T1 construct: expressed in transfected cells; host or cells: Spiking HEK cells (without Kir2.1 transfection)
T1 sequence (Q15858 whole entry): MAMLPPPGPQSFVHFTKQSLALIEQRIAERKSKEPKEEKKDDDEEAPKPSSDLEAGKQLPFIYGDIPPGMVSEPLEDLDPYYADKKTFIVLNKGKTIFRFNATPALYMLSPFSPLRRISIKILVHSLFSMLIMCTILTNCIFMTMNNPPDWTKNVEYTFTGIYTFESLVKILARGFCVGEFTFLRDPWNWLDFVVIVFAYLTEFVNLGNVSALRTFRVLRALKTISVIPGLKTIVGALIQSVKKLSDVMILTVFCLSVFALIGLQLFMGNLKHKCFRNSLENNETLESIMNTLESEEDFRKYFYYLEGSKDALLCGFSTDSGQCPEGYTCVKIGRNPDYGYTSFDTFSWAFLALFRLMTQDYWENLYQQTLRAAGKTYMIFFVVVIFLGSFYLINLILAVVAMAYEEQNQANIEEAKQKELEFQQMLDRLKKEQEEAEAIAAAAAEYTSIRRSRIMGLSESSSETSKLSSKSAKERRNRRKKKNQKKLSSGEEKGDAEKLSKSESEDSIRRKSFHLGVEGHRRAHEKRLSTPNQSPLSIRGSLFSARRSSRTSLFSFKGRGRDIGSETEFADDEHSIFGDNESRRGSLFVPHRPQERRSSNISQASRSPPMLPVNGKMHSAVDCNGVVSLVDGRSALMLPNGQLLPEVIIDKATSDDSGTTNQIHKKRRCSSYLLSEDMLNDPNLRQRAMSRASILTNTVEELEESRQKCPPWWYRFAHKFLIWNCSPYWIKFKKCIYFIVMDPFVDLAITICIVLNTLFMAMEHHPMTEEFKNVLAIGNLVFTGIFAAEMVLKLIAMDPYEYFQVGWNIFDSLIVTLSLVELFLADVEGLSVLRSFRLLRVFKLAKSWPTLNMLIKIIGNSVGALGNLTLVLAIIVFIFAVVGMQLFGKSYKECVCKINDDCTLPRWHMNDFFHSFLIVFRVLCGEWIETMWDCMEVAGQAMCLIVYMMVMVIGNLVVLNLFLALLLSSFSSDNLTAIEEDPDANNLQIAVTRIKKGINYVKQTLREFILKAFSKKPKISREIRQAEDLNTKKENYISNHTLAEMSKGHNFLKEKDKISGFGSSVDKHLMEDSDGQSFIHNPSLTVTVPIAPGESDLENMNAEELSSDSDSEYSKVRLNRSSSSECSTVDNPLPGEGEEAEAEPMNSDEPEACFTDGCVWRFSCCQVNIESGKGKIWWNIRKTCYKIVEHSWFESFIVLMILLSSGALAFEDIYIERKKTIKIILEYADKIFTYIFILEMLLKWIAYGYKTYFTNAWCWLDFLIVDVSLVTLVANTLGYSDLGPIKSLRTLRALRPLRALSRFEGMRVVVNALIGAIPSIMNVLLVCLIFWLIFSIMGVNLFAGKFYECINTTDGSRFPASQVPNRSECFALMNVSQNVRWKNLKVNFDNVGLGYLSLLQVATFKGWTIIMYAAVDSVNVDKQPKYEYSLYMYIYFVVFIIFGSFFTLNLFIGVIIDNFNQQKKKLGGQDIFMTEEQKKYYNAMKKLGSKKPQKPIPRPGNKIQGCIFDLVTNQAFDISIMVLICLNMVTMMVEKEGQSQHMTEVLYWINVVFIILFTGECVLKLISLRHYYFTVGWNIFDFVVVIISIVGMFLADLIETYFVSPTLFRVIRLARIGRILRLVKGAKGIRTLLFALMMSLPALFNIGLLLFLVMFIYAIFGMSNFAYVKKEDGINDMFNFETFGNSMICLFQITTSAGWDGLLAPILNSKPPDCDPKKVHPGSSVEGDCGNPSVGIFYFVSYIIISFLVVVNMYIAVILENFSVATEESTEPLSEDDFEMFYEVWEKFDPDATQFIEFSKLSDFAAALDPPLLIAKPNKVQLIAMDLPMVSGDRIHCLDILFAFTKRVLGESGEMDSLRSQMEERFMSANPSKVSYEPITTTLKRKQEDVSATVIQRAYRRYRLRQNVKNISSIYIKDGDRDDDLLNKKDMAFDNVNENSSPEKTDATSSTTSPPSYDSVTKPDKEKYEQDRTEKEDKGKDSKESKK
Protocol: Ionworks Barracuda (IWB) Automated Patch Clamp Assay (Same Protocol for Both Human and Mouse)
Human NaV1.7 currents were recorded in population patch-clamp mode with the IWB automated electrophysiology system (Molecular Devices, LLC, Sunnyvale, Calif.). Spiking HEK cells (without Kir2.1 transfection) were cultured and prepared for recordings as previously described for IonWorks Quattro testing^1. The external solution consisted of the following (in mM): NaCl 140, KCl 5, CaCl2 2, MgCl2 1, HEPES 10, and glucose 11, pH 7.4, with N-methyl-D-glucamine at 320 mOsmol. […] From a holding potential of −110 mV, currents were elicited by a train of 26 depolarizations of 150 ms duration to −20 mV at a frequency of 5 Hz. Cells were then clamped to −20 mV for a period of 4 minutes in the presence of a single concentration of test compound. Following this compound incubation period, cells were clamped to −110 mV for three seconds to recover unbound channels and put through the same 26 pulse voltage protocol as above. Peak inward current during the 26th pulse to −20 mV in the presence of compound was divided by the peak inward current evoked by the 26th pulse to −20 mV in the absence of compound to determine percent inhibition. Concentration-response curves of percent inhibition as a function of concentration were generated to calculate IC50 values as described in Kornecook, T. J.; Yin, R.; Altmann, S.; et al. Pharmacologic Characterization of AMG8379, a Potent and Selective Small Molecule Sulfonamide Antagonist of the Voltage-Gated Sodium Channel NaV1. 7.
The potency of the compounds of the present invention were evaluated on human NaV1.7 channels using the above described IonWorks Barracuda automated electrophysiology platform that evaluates the ability of compounds to block sodium conductance through NaV1.7 channels. A voltage-protocol that prosecutes both state-dependent as well as use-dependent inhibition was used as these modes of action are thought to be more relevant for the native state of NaV1.7 channels in pain sensing neurons in vivo.

[2] = system: CYP3A4; test: Human CYP 3A4 induction assay (mRNA, cryopreserved human hepatocytes); assay type: in vitro ADME; conditions: 10 uM test compound, 72 hours, percent of control (rifampin positive control)
Protocol: Human CYP 3A4 Induction Assay
Cryopreserved human hepatocytes were seeded in 96-well collagen coated plates at 70,000 cells per well in hepatocyte plating media (HPM, final concentrations: 1× Dulbecco's Modified Eagle's Medium, 0.1 μM dexamethasone, 10% fetal bovine serum, 1×ITS, 1×PSG) followed by incubation at 37° C. under 5% CO2 and 90% relative humidity for 2 days to allow hepatocytes to form a confluent layer. On Day 3, hepatocytes were treated with either test compound or rifampin (20 μM, positive control for CYP3A induction) prepared in hepatocyte incubation media ((HIM, final concentrations: 1× William's Medium E, 0.1 μM dexamethasone, 1×ITS, 1×PSG). Treatment was performed for 72 hours with either 2 concentrations (2 μM or 10 μM) or a range of concentrations (0.001 μM to 100 μM) of the test compound to obtain full dose-response curve. Fresh media containing the relevant concentrations of the test compound was replaced every day until the samples were processed. After 72 hours of incubation, samples were processed for mRNA analysis using bDNA technology using manufacturer's instructions (Affymetrix, Fremont, Calif.). Cell viability was tested at the end of the experiment using MTT assay kit (Roche Diagnostics, Basel, Switzerland). Data was analyzed and presented as percent of control (POC) and Emax and EC50 obtained when appropriate according to guidance from Center for Drug Evaluation and Research (CDER), 2006, Guidance for Industry, Drug Interaction Studies—Study Design, Data Analysis, and Implications for Dosing and Labeling.
Cryopreserved human hepatocytes were seeded in 96-well collagen coated plates at 70,000 cells per well in hepatocyte plating media (HPM, final concentrations: 1× Dulbecco's Modified Eagle's Medium, 0.1 μM dexamethasone, 10% fetal bovine serum, 1×ITS, 1×PSG) followed by incubation at 37° C. under 5% CO2 and 90% relative humidity for 2 days to allow hepatocytes to form a confluent layer. On Day 3, hepatocytes were treated with either test compound or rifampin (20 μM, positive control for CYP3A induction) prepared in hepatocyte incubation media ((HIM, final concentrations: 1× William's Medium E, 0.1 μM dexamethasone, 1×ITS, 1×PSG). Treatment was performed for 72 hours with either 2 concentrations (2 μM or 10 μM) or a range of concentrations (0.001 μM to 100 μM) of the test compound to obtain full dose-response curve. Fresh media containing the relevant concentrations of the test compound was replaced every day until the samples were processed. After 72 hours of incubation, samples were processed for mRNA analysis using bDNA technology using manufacturer's instructions (Affymetrix, Fremont, Calif.). Cell viability was tested at the end of the experiment using MTT assay kit (Roche Diagnostics, Basel, Switzerland). Data was analyzed and presented as percent of control (POC) and Emax and EC50 obtained when appropriate, as described in Halladay, J. et al, 2012, An “all-inclusive” 96-well cytochrome P450 induction method: Measuring enzyme activity, mRNA levels, protein levels, and cytotoxicity from one well using cryopreserved human hepatocytes, Pharmacological and Toxicological Methods, 66:270-275.
The cytochrome P450 (CYP) is a well-known superfamily of enzymes that are responsible for the oxidative and reductive metabolic transformation of medications used in clinical practice. In addition, the CYP enzymes are commonly associated with causing many clinically relevant drug-drug interactions. […]

Compound | IC50 [1] [nM] | CYP3A4 mRNA Induct Hu 10 uM POC [2] [%]
(P)-1-(5-fluoro-2-methoxy-4-((1S,2S)-2-((trifluoromethoxy)methyl)cyclopropyl)phenyl)-N-(isoxazol-3-yl)-2-oxo-1,2-dihydroquinoline-6-sulfonamide [Example 33] | 4 | 139.9
COc1cc([C@@H]2C[C@H]2C(F)(F)F)ccc1-n1c(=O)ccc2cc(S(=O)(=O)Nc3ccon3)ccc21 (single isomer, unassigned) [Example 38] | 10 | 29.06
COc1cc([C@@H]2C[C@H]2C(F)(F)F)c(F)cc1-n1c(=O)ccc2cc(S(=O)(=O)Nc3ccon3)c(F)cc21 (atropisomer, axis not shown; (P)) [Example 45, (P)-7-fluoro-1-(5-fluoro-2-methoxy-4-((1R,2R)-2-(trifluoromethyl)cyclopropyl)phenyl)-N-(isoxazol-3-yl)-2-oxo-1,2-dihydroquinoline-6-sulfonamide] |  | 24.57
COc1cc([C@H]2C[C@@H]2C(F)(F)F)ccc1-n1c(=O)ccc2cc(S(=O)(=O)Nc3ccon3)ccc21 (single isomer, unassigned) [Example 39] | 8 | 38.35
